Source: article PMC11167047 (Cell Death Discovery, 2024)

Tests used:
Test in all cases: kinome screen (33PanQinase)
Assay type in all cases: biochemical
[1] = target: T1, LIMK1 (Homo sapiens, UniProt P53667)
T1 construct: purchased Reaction Biology Europe GmbH (formerly ProQinase)
Experimental: (§1) The Kinome Screening was performed by Reaction Biology Europe GmbH (http://reactionbiology.com; Freiburg i. Br., Germany).

[2] = target: T2, ERK7 (Homo sapiens, UniProt Q8TD08)
T2 construct: purchased Reaction Biology Europe GmbH (formerly ProQinase)
T2 sequence (Q8TD08 1-544): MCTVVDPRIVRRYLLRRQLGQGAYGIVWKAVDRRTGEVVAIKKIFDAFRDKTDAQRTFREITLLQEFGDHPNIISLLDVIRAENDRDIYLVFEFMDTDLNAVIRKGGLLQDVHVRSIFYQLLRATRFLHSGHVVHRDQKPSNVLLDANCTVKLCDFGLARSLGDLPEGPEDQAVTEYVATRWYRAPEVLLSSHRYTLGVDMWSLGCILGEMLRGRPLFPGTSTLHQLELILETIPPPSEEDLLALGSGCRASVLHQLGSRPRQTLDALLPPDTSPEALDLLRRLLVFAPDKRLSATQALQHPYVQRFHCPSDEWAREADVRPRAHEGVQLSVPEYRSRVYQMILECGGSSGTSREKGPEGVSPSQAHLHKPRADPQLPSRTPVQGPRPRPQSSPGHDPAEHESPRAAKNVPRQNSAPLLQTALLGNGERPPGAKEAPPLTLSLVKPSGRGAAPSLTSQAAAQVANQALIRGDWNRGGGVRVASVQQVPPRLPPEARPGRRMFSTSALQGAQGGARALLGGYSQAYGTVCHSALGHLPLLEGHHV
Experimental: as §1

[3] = target: T3, CK1α1 (Homo sapiens, UniProt P48729)
T3 construct: purchased Reaction Biology Europe GmbH (formerly ProQinase)
Experimental: as §1

[4] = target: T4, GSG2 (Homo sapiens, UniProt Q8TF76)
T4 construct: purchased Reaction Biology Europe GmbH (formerly ProQinase)
T4 sequence (Q8TF76 1-798): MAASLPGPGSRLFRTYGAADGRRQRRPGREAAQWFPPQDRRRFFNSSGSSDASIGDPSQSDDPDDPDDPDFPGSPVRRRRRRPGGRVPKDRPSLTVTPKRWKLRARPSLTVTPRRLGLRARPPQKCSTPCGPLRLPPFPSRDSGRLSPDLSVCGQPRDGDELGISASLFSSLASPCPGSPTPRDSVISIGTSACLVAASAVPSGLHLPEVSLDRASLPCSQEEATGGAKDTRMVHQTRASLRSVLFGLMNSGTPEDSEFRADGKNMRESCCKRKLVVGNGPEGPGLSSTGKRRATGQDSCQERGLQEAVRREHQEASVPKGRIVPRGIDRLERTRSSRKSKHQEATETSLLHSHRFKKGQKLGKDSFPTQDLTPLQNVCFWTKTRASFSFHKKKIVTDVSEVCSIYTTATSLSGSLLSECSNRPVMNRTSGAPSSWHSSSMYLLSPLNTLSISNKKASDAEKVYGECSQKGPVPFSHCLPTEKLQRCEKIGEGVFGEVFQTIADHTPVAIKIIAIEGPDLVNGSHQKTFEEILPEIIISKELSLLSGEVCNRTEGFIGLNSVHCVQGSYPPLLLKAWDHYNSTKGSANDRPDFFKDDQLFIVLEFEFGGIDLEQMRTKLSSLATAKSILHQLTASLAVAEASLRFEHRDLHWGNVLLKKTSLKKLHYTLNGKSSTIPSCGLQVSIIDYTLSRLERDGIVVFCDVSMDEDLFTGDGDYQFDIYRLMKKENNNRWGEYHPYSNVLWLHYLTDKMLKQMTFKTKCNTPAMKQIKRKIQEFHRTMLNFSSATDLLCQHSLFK
Experimental: as §1

[5] = target: T5, CDK9/CycK (Homo sapiens, UniProt P50750)
T5 construct: purchased Reaction Biology Europe GmbH (formerly ProQinase)
Experimental: as §1

[6] = target: T6, PLK1 (Homo sapiens, UniProt P53350)
T6 construct: purchased Reaction Biology Europe GmbH (formerly ProQinase)
Experimental: as §1

[7] = target: T7, EPHA1 (Homo sapiens, UniProt P21709)
T7 construct: purchased Reaction Biology Europe GmbH (formerly ProQinase)
T7 sequence (P21709 26-976): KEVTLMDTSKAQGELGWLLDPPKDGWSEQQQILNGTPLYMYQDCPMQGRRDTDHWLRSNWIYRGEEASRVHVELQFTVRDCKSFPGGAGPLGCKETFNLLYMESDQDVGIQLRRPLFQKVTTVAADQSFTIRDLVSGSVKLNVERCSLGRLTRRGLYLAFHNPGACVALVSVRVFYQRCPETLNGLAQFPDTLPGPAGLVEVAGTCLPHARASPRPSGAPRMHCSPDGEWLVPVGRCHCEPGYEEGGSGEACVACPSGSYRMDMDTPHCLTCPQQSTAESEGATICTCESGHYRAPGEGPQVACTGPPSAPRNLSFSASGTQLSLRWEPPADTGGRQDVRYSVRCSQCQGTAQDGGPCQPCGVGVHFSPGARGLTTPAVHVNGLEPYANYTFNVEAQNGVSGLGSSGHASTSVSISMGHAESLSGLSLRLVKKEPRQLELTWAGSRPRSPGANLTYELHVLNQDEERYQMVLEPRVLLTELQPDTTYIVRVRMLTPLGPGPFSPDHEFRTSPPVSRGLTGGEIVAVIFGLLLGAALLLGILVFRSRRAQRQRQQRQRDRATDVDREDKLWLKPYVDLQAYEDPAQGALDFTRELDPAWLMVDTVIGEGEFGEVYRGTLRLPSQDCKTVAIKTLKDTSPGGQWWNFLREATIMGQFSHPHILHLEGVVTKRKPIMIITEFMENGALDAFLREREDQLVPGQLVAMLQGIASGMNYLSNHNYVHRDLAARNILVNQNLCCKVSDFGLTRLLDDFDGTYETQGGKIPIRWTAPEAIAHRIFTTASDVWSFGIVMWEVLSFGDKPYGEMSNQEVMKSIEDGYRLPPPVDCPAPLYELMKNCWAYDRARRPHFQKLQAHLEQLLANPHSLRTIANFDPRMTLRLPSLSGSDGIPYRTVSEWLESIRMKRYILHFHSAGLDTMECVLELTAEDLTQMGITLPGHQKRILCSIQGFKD
Experimental: as §1

T1 sequence (P53667 whole entry): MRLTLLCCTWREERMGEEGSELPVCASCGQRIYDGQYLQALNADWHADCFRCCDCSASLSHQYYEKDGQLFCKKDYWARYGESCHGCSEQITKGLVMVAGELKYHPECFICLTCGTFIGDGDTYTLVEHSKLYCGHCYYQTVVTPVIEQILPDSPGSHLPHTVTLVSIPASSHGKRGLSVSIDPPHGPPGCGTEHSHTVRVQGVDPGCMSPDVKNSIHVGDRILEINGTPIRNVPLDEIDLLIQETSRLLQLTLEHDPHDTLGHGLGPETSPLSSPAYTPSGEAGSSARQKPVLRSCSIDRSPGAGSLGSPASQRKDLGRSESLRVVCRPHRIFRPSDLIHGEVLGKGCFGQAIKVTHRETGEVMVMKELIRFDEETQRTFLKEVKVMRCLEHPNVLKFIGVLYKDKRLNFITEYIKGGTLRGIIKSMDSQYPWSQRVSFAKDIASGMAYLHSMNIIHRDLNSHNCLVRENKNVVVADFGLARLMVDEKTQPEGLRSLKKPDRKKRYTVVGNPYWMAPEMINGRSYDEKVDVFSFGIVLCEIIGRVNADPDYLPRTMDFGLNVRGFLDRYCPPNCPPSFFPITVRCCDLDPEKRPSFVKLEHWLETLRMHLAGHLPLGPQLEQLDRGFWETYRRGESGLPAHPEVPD
T6 sequence (P53350 whole entry): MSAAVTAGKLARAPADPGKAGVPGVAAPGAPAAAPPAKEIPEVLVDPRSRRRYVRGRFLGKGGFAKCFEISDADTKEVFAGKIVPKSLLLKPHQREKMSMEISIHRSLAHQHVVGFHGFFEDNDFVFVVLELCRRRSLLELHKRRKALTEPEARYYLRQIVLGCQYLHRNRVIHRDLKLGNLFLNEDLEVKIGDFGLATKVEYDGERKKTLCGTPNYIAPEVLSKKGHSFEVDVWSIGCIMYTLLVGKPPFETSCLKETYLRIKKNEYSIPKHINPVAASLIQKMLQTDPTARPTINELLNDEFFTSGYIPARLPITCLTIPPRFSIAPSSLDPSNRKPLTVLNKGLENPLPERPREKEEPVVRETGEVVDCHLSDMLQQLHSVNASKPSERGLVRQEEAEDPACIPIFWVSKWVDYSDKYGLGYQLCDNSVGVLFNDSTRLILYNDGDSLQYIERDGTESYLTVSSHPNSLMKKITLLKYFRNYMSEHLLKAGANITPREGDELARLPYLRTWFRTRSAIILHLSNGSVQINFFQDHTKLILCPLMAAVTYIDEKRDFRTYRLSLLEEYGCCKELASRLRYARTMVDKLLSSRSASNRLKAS
T3 sequence (P48729 whole entry): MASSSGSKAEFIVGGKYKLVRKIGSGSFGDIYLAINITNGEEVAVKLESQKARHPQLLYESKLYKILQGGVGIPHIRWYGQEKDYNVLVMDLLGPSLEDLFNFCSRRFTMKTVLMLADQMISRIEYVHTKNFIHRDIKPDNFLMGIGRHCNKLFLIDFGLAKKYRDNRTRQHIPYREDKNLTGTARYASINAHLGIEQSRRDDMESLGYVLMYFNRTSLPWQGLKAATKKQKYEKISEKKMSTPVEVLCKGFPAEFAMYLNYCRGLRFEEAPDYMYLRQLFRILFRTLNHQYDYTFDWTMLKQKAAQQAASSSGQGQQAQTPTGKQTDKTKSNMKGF
T5 sequence (P50750 whole entry): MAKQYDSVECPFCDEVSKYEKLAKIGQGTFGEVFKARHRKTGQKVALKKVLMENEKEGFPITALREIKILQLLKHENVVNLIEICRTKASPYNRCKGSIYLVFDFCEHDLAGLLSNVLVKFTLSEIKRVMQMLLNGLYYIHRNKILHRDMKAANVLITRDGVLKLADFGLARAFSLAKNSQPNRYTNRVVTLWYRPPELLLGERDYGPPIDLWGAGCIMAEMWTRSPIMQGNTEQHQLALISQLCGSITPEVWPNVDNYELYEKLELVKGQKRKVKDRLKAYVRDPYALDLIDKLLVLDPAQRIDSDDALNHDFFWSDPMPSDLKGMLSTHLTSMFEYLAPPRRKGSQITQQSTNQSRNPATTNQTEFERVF
T5 sequence (O75909 whole entry partner): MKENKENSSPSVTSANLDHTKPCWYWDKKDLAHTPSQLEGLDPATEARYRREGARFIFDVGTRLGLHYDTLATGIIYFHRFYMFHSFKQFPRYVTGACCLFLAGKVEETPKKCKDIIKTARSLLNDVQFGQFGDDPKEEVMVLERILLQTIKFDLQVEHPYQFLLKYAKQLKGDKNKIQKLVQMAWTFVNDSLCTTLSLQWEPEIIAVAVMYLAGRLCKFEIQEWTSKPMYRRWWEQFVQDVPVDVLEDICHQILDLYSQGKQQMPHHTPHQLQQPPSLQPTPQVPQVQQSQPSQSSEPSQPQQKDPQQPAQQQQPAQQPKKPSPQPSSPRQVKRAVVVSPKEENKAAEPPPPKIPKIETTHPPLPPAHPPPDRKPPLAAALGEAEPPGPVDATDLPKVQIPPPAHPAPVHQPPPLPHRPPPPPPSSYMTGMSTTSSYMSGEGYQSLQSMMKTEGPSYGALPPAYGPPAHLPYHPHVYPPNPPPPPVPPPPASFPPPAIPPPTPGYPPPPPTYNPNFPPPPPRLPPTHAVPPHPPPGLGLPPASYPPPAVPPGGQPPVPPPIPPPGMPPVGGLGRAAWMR

Row | SMILES | residual kinase activity ([1]; 0.3 µM) | residual kinase activity ([2]; 0.3 µM) | residual kinase activity ([3]; 0.3 µM) | residual kinase activity ([4]; 0.3 µM) | residual kinase activity ([5]; 0.3 µM) | residual kinase activity ([6]; 0.3 µM) | residual kinase activity ([7]; 0.3 µM) | also measured
1 | COc1ccnc2[nH]cc(-c3cc(N)nc(N)c3)c12 [meriolin 16] | 3 % of control | 59 % of control | 93 % of control | 0 % of control | 0 % of control | 90 % of control | 116 % of control | residual kinase activity ([1]; 0.03 µM): 10 % of control; residual kinase activity ([2]; 0.03 µM): 86 % of control; residual kinase activity ([3]; 0.03 µM): 129 % of control; residual kinase activity ([4]; 0.03 µM): 2 % of control; residual kinase activity ([5]; 0.03 µM): 7 % of control; residual kinase activity ([6]; 0.03 µM): 95 % of control; residual kinase activity ([7]; 0.03 µM): 128 % of control
2 | c1ccc(CNc2cc(-c3c[nH]c4ncccc34)ccn2)cc1 [meriolin 36] | 9 % of control | 7 % of control | 110 % of control | 2 % of control | 2 % of control | 100 % of control | 127 % of control | residual kinase activity ([1]; 3 µM): 1 % of control; residual kinase activity ([2]; 3 µM): -3 % of control; residual kinase activity ([3]; 3 µM): 51 % of control; residual kinase activity ([4]; 3 µM): 0 % of control; residual kinase activity ([5]; 3 µM): 0 % of control; residual kinase activity ([6]; 3 µM): 66 % of control; residual kinase activity ([7]; 3 µM): 126 % of control
